Consider 25 compounds from US20230365592A1 (Agios Pharmaceuticals, Inc., priority 2022, published 2023).

Bounds are passed on as bounds.

The experiment addresses T1, human PAH with the R408W mutation (Homo sapiens, UniProt P00439, R408W).
T1 construct: expressed in transfected cells
T1 sequence (P00439 1-452 R408W): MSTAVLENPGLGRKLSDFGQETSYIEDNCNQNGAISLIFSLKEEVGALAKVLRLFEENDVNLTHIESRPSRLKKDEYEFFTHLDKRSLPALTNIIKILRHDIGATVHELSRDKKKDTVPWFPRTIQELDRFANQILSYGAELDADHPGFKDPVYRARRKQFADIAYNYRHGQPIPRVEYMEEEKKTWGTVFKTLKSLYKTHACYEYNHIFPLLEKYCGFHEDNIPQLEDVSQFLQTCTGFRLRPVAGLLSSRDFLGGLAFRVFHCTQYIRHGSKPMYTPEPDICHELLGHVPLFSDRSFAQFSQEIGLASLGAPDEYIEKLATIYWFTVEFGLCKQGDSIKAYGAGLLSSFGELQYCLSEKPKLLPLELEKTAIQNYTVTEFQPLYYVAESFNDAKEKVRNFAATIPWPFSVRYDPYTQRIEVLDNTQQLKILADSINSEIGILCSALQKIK
Briefly: Cell Based Phenylalanine Flux Assay.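 Further: after compound treatment, cells received sepiapterin plus isotope-labelled Phenylalanine for 4 hours, then labelled Tyrosine in the medium was quantified, 10-point 2-fold dilution series run in duplicate.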 Particulars: A375 cells expressing human R408W PAH; 24 hrs compound incubation; 13C-Tyrosine by LC-MS; average where tested multiple times; read-out: AC50.
As a reminder, the AC50 is the concentration at which the activity in the assay is half-maximal. In the case of `Cc1cccc2cc([C@@H]3c4nc[nH]c4CCN3C(=O)c3nnc(-c4ccn(C(F)F)n4)o3)nn12` [Example 936, (S)-(5-(1-(difluoromethyl)-1H-pyrazol-3-yl)-1,3,4-oxadiazol-2-yl)(4-(7-methylpyrazolo[1,5-a]pyridin-2-yl)-6,7-dihydro-1H-imidazo[4,5-c]pyridin-5(4H)-yl)methanone], the concentration at half-maximal activity (AC50) is below 500 nM.
The figure for `Cc1cccc2cc([C@H]3c4nc[nH]c4CCN3C(=O)c3nnc(-c4ccn(C(F)F)n4)o3)nn12` [Example 937, (R)-(5-(1-(difluoromethyl)-1H-pyrazol-3-yl)-1,3,4-oxadiazol-2-yl)(4-(7-methylpyrazolo[1,5-a]pyridin-2-yl)-6,7-dihydro-1H-imidazo[4,5-c]pyridin-5(4H)-yl)methanone] is above 5000 nM; for `Cc1cccc2cc([C@@H]3c4nc[nH]c4CCN3C(=O)c3nnc(C(C)(C)F)o3)nn12` [Example 938, (S)-(5-(2-fluoropropan-2-yl)-1,3,4-oxadiazol-2-yl)(4-(7-methylpyrazolo[1,5-a]pyridin-2-yl)-6,7-dihydro-1H-imidazo[4,5-c]pyridin-5(4H)-yl)methanone] it is below 500 nM; for `Cc1cccc2cc([C@@H]3c4nc[nH]c4CCN3C(=O)c3nnc(C4CC4)o3)nn12` [Example 940, (S)-(5-cyclopropyl-1,3,4-oxadiazol-2-yl)(4-(7-methylpyrazolo[1,5-a]pyridin-2-yl)-6,7-dihydro-1H-imidazo[4,5-c]pyridin-5(4H)-yl)methanone] it is 500 to 1000 nM.
Take `Cc1cccc2cc([C@H]3c4nc[nH]c4CCN3C(=O)c3nnc(C4CC4)o3)nn12` [Example 941, (R)-(5-cyclopropyl-1,3,4-oxadiazol-2-yl)(4-(7-methylpyrazolo[1,5-a]pyridin-2-yl)-6,7-dihydro-1H-imidazo[4,5-c]pyridin-5(4H)-yl)methanone]: the concentration at half-maximal activity (AC50) is above 5000 nM.
On to `O=C(c1nnc(C2CC2)o1)N1CCc2[nH]cnc2[C@H]1c1cc2c(C(F)(F)F)cccn2n1` [Example 942, (S)-(5-cyclopropyl-1,3,4-oxadiazol-2-yl)(4-(4-(trifluoromethyl)pyrazolo[1,5-a]pyridin-2-yl)-6,7-dihydro-1H-imidazo[4,5-c]pyridin-5(4H)-yl)methanone], for which the AC50 is below 500 nM.
`O=C(c1nnc(C2CC2)o1)N1CCc2[nH]cnc2[C@@H]1c1cc2c(C(F)(F)F)cccn2n1` [Example 943, (R)-(5-cyclopropyl-1,3,4-oxadiazol-2-yl)(4-(4-(trifluoromethyl)pyrazolo[1,5-a]pyridin-2-yl)-6,7-dihydro-1H-imidazo[4,5-c]pyridin-5(4H)-yl)methanone]: the concentration at half-maximal activity (AC50) is above 5000 nM.
For the compound `Cc1nnc(C(=O)N2CCc3[nH]cnc3[C@H]2c2cc3c(C(F)(F)F)cccn3n2)o1` [Example 944, (S)-(5-methyl-1,3,4-oxadiazol-2-yl)(4-(4-(trifluoromethyl)pyrazolo[1,5-a]pyridin-2-yl)-6,7-dihydro-1H-imidazo[4,5-c]pyridin-5(4H)-yl)methanone], the concentration at half-maximal activity (AC50) lay in the range of 500 to 1000 nM.
In the case of `Cc1nnc(C(=O)N2CCc3[nH]cnc3[C@@H]2c2cc3c(C(F)(F)F)cccn3n2)o1` [Example 945, (R)-(5-methyl-1,3,4-oxadiazol-2-yl)(4-(4-(trifluoromethyl)pyrazolo[1,5-a]pyridin-2-yl)-6,7-dihydro-1H-imidazo[4,5-c]pyridin-5(4H)-yl)methanone], the AC50 was above 5000 nM.
On to `O=C(c1nnc(C2CC2)o1)N1CCc2[nH]cnc2[C@H]1c1cc2c(F)cccn2n1` [Example 946, (S)-(5-cyclopropyl-1,3,4-oxadiazol-2-yl)(4-(4-fluoropyrazolo[1,5-a]pyridin-2-yl)-6,7-dihydro-1H-imidazo[4,5-c]pyridin-5(4H)-yl)methanone], for which the AC50 is below 500 nM.
Turning to `O=C(c1nnc(C2CC2)o1)N1CCc2[nH]cnc2[C@@H]1c1cc2c(F)cccn2n1` [Example 947, (R)-(5-cyclopropyl-1,3,4-oxadiazol-2-yl)(4-(4-fluoropyrazolo[1,5-a]pyridin-2-yl)-6,7-dihydro-1H-imidazo[4,5-c]pyridin-5(4H)-yl)methanone], the concentration at half-maximal activity (AC50) is above 5000 nM.
For `CC(C)(C)c1nnc(C(=O)N2CCc3[nH]cnc3[C@H]2c2cc3c(C(F)(F)F)cccn3n2)o1` [Example 948, (S)-(5-(tert-butyl)-1,3,4-oxadiazol-2-yl)(4-(4-(trifluoromethyl)pyrazolo[1,5-a]pyridin-2-yl)-6,7-dihydro-1H-imidazo[4,5-c]pyridin-5(4H)-yl)methanone], the AC50 is below 500 nM.
Then `CC(C)(C)c1nnc(C(=O)N2CCc3[nH]cnc3[C@@H]2c2cc3c(C(F)(F)F)cccn3n2)o1` [Example 949, (R)-(5-(tert-butyl)-1,3,4-oxadiazol-2-yl)(4-(4-(trifluoromethyl)pyrazolo[1,5-a]pyridin-2-yl)-6,7-dihydro-1H-imidazo[4,5-c]pyridin-5(4H)-yl)methanone], with 1000 to 5000 nM; and `CC(C)(F)c1nnc(C(=O)N2CCc3[nH]cnc3[C@H]2c2cc3c(C(F)(F)F)cccn3n2)o1` [Example 950, (S)-(5-(2-fluoropropan-2-yl)-1,3,4-oxadiazol-2-yl)(4-(4-(trifluoromethyl)pyrazolo[1,5-a]pyridin-2-yl)-6,7-dihydro-1H-imidazo[4,5-c]pyridin-5(4H)-yl)methanone], with below 500 nM; and `CC(C)(F)c1nnc(C(=O)N2CCc3[nH]cnc3[C@@H]2c2cc3c(C(F)(F)F)cccn3n2)o1` [Example 951, (R)-(5-(2-fluoropropan-2-yl)-1,3,4-oxadiazol-2-yl)(4-(4-(trifluoromethyl)pyrazolo[1,5-a]pyridin-2-yl)-6,7-dihydro-1H-imidazo[4,5-c]pyridin-5(4H)-yl)methanone], with 1000 to 5000 nM.
The figure for `Cn1cc(-c2nnc(C(=O)N3CCc4[nH]cnc4[C@H]3c3cc4cccc(C(F)(F)F)n4n3)o2)cn1` [Example 952, (S)-(5-(1-methyl-1H-pyrazol-4-yl)-1,3,4-oxadiazol-2-yl)(4-(7-(trifluoromethyl)pyrazolo[1,5-a]pyridin-2-yl)-6,7-dihydro-1H-imidazo[4,5-c]pyridin-5(4H)-yl)methanone] is 500 to 1000 nM; for `Cn1cc(-c2nnc(C(=O)N3CCc4[nH]cnc4[C@@H]3c3cc4cccc(C(F)(F)F)n4n3)o2)cn1` [Example 953, (R)-(5-(1-methyl-1H-pyrazol-4-yl)-1,3,4-oxadiazol-2-yl)(4-(7-(trifluoromethyl)pyrazolo[1,5-a]pyridin-2-yl)-6,7-dihydro-1H-imidazo[4,5-c]pyridin-5(4H)-yl)methanone] it is 1000 to 5000 nM.
Then `Cc1c(-c2nnc(C(=O)N3CCc4[nH]cnc4[C@H]3c3cc4c(F)cccn4n3)o2)cnn1C` [Example 954, (S)-(5-(1,5-dimethyl-1H-pyrazol-4-yl)-1,3,4-oxadiazol-2-yl)(4-(4-fluoropyrazolo[1,5-a]pyridin-2-yl)-6,7-dihydro-1H-imidazo[4,5-c]pyridin-5(4H)-yl)methanone], with below 500 nM; and `Cc1c(-c2nnc(C(=O)N3CCc4[nH]cnc4[C@@H]3c3cc4c(F)cccn4n3)o2)cnn1C` [Example 955, (R)-(5-(1,5-dimethyl-1H-pyrazol-4-yl)-1,3,4-oxadiazol-2-yl)(4-(4-fluoropyrazolo[1,5-a]pyridin-2-yl)-6,7-dihydro-1H-imidazo[4,5-c]pyridin-5(4H)-yl)methanone], with above 5000 nM.
Turning to `Cc1cccn2nc([C@H]3c4nc[nH]c4CCN3C(=O)c3nnc(-c4cnccn4)o3)cc12` [Example 956, (R)-(4-(4-methylpyrazolo[1,5-a]pyridin-2-yl)-6,7-dihydro-1H-imidazo[4,5-c]pyridin-5(4H)-yl)(5-(pyrazin-2-yl)-1,3,4-oxadiazol-2-yl)methanone], the AC50 was above 5000 nM.
Then `Cc1cccn2nc([C@@H]3c4nc[nH]c4CCN3C(=O)c3nnc(-c4cnccn4)o3)cc12` [Example 957, (S)-(4-(4-methylpyrazolo[1,5-a]pyridin-2-yl)-6,7-dihydro-1H-imidazo[4,5-c]pyridin-5(4H)-yl)(5-(pyrazin-2-yl)-1,3,4-oxadiazol-2-yl)methanone], with below 500 nM.
Then `O=C(c1ocnc1C(F)F)N1CCc2[nH]cnc2[C@@H]1c1cc2cccc(Cl)n2n1` [Example 959, (R)-(4-(7-chloropyrazolo[1,5-a]pyridin-2-yl)-6,7-dihydro-1H-imidazo[4,5-c]pyridin-5(4H)-yl)(4-(difluoromethyl)oxazol-5-yl)methanone], with 1000 to 5000 nM; and `CC(C)(O)c1nc(C(F)F)c(C(=O)N2CCc3[nH]cnc3[C@H]2c2cc3cccc(Cl)n3n2)o1` [Example 960, (S)-(4-(7-chloropyrazolo[1,5-a]pyridin-2-yl)-6,7-dihydro-1H-imidazo[4,5-c]pyridin-5(4H)-yl)(4-(difluoromethyl)-2-(2-hydroxypropan-2-yl)oxazol-5-yl)methanone], with 500 to 1000 nM.
As to `CC(C)(O)c1nc(C(F)F)c(C(=O)N2CCc3[nH]cnc3[C@@H]2c2cc3cccc(Cl)n3n2)o1` [Example 961, (R)-(4-(7-chloropyrazolo[1,5-a]pyridin-2-yl)-6,7-dihydro-1H-imidazo[4,5-c]pyridin-5(4H)-yl)(4-(difluoromethyl)-2-(2-hydroxypropan-2-yl)oxazol-5-yl)methanone], the half-maximal activity concentration (AC50) fell in the range of 1000 to 5000 nM.
Then `O=C(c1nnc(-c2cnccn2)o1)N1CCc2[nH]cnc2[C@@H]1c1cc2c(F)cccn2n1` [Example 963, (R)-(4-(4-fluoropyrazolo[1,5-a]pyridin-2-yl)-6,7-dihydro-1H-imidazo[4,5-c]pyridin-5(4H)-yl)(5-(pyrazin-2-yl)-1,3,4-oxadiazol-2-yl)methanone], with above 5000 nM.
